Reference: US6420367B1, “Pyrimidine derivatives exhibiting antitumor activity” (Shionogo & Co., Ltd., priority 1998, dated 2002)
Values after ≈ are worked out from the molar mass of the structure shown.

Key:
[1] = tested on: DT-R cells (pRRE3-luc-transfected v-ki-ras-transformed NIH3T3 cells); signal derived from Ras oncogene products; assay: Inhibitory effect against cellular signaling derived from Ras oncogene products: luciferase reporter, dissociation of DT-R from DT-C activity (MAC); assay type: cell-based, mouse; details: minimal tested concentration at which luciferase activities of DT-C cells and DT-R cells dissociated
Excerpt: Test Example 1 Inhibitory Effect Against Cellular Signaling Derived From Ras Oncogene Products
1) Establishment of Cell Lines Used in Assay
Based on the reporter plasmid (pGV-P (Toyo Ink, Japan)), in which luciferase gene was ligated to SV40-derived minimal promoter, we constructed a plasmid designated pRRE3-luc by inserting 3 copies of chemically synthesized oligonucleotides (Sequence: CAGGATATGACTCT, derived from mouse NVL-3 (M. A. Reddy et al.(1992)Mol. Endocrinol., 6, 1051)) into upstream of the promoter. v-ki-ras-transformed NIH3T3 cells (DT cells, provided by Dr. Makoto Noda (Kyoto Univ., School of medicine)) were transfected with this plasmid by liposome-mediated transfection and transfected cell lines stably incorporated and maintained each plasmid were obtained. We named pGV-P and pRRE3-transfected cell line as DT-C and DT-R, respectively and used in the assay described below.
2) Preparation of Samples
i) All the cell lines were cultured in Dulbecco's Modified Essential Medium (DMEM: 10% Fetal Calf Serum(FCS: Hyclone, USA)) including […] kanamycin (Meiji Seika, Japan) in humidified incubator under condition of 5% CO2 at 37° C.
ii) DT-C and DT-R cells were seeded at 2500 cells/well into flat-bottom 96 well multiplate (Sumitomo bakelite) and incubated for 24 hours.
iii) Test compounds were prepared as 1 mg/ml DMSO solution.
iv) The solution of test compounds were added to the culture. Tested compounds are used at the concentration from […] to 0.51 ng/ml with by 3-fold dilution.
v) After 24 hours, the culture supernatant was completely aspirated and […] of cell-lysing solution (PGC-50 (Toyo Ink, Japan)) was added before cells were dried up. In order to the cells were lysed completely, multiwell plates were left at room temperature for 10 to 30 min. The plates were wrapped up and stored at −20° C. till the day of measurement.
3) Measurement of Samples
i) Melt the samples by putting 96 well multiplate at 37° C. and add 90 μl/well 25 mM Tris (pH 7.5).
ii) Transfer 50 μl of the sample (110 μl) to the 96 well microplate for measurement (Microlite 1 (Dynatech)).
iii) Measure the samples by the luminometer, LUMINOUS CT9000D (Dia-Yatron, Japan). We used Pickagene luminescence kit PGL2000 or LT2.0 (Toyo Ink, Japan) as substrates for luminescence measurement (50 μl/well).
4) Judgment of the Results
i) The luciferase activity of DT-C cells and DT-R cells were plotted in the graph where the relative activity and the compound concentration were expressed as Y-axis and X-axis, respectively. We judged by the degree of dissociation between the activities of DT-C cells and DT-R cells as an index.
ii) Concretely, efficacy of the compound was expressed by two values described below.
a) Among the points of concentration tested, the minimal concentration (Minimal Active Concentration: MAC), at which the activities of DT-C cells and DT-R cells dissociated, was shown as an index of efficacy of the compound.

[2] = tested on: human colon cancer HT29; assay: In vitro cell growth inhibition test, MTT assay; assay type: cell-based; details: MTT assay 4 days after compound addition
Excerpt: (§1) Test Example 2 In Vitro Cell Growth Inhibition Test Cells and MTT Assay
(§2) Human squamous lung cancer […], human squamous lung cancer Ma44, human lung adenocarcinoma A549, human colon cancer HT29 and human pancreas cancer PANC-1 were used.

[3] = tested on: human squamous lung cancer RERF-RC-AI; assay: In vitro cell growth inhibition test, MTT assay; assay type: cell-based; details: MTT assay 4 days after compound addition
Excerpt: as §1, §2

[4] = tested on: human lung adenocarcinoma A549; assay: In vitro cell growth inhibition test, MTT assay; assay type: cell-based; details: MTT assay 4 days after compound addition
Excerpt: as §1, §2

[5] = tested on: human pancreas cancer PANC-1; assay: In vitro cell growth inhibition test, MTT assay; assay type: cell-based; details: MTT assay 4 days after compound addition
Excerpt: as §1, §2

[6] = tested on: human squamous lung cancer Ma44; assay: In vitro cell growth inhibition test, MTT assay; assay type: cell-based; details: MTT assay 4 days after compound addition
Excerpt: as §1, §2

| Compound | MAC (Minimal Active Concentration) [1] [µg/mL] | IC50, HT29 [2] [µg/mL] | IC50, RERF-LC-AI [3] [µg/mL] | IC50, A549 [4] [µg/mL] | IC50, PANC-1 [5] [µg/mL] | IC50, Ma44 [6] [µg/mL] |
| --- | --- | --- | --- | --- | --- | --- |
| CCNC(=Nc1nc(C)ncc1CSc1nnc(-c2ccccc2N)o1)NC [Compound A-1] | 0.0412 | 0.012 (≈ 0.0301 µM) | 0.018 (≈ 0.0452 µM) | 0.022 (≈ 0.0552 µM) | 0.016 (≈ 0.0402 µM) | 0.039 (≈ 0.0979 µM) |
| CCNC(=Nc1nc(C)ncc1CSc1nnc(-c2ccccc2NC(C)=O)o1)NC [Compound A-2] | 0.0412 | 0.015 (≈ 0.034 µM) | 0.009 (≈ 0.0204 µM) | 0.017 (≈ 0.0386 µM) | 0.015 (≈ 0.034 µM) | 0.022 (≈ 0.0499 µM) |
| CCNC(=Nc1ncncc1CSc1nnc(-c2ccc(N)cc2)o1)NCC [Compound A-3] | 0.0412 | 0.0066 (≈ 0.0166 µM) | 0.026 (≈ 0.0652 µM) | 0.035 (≈ 0.0878 µM) | 0.015 (≈ 0.0376 µM) | 0.09 (≈ 0.226 µM) |
| CCNC(=Nc1nc(C)ncc1CSc1nnc(-c2ccccc2NC)o1)NC [Compound A-38] | 0.0412 | 0.023 (≈ 0.0558 µM) | 0.014 (≈ 0.0339 µM) | – | 0.028 (≈ 0.0679 µM) | 0.034 (≈ 0.0824 µM) |
| CCNC(=Nc1nc(C)ncc1CSc1nnc(-c2cc(F)c(F)cc2N)o1)NCC [Compound A-52] | 0.123 | – | – | 0.049 (≈ 0.109 µM) | 0.024 (≈ 0.0535 µM) | 0.11 (≈ 0.245 µM) |
| CCNC(=Nc1nc(C)ncc1CSc1nnc(-c2ccc(NC(C)=O)cc2)o1)NCC [Compound A-56] | – | – | – | 0.18 (≈ 0.396 µM) | 0.085 (≈ 0.187 µM) | 0.85 (≈ 1.87 µM) |
| CCNC(=Nc1ncncc1CSc1nnc(-c2ccccc2NC(C)=O)o1)NCC [Compound A-57] | 0.0137 | – | – | 0.014 (≈ 0.0318 µM) | 0.0088 (≈ 0.02 µM) | 0.025 (≈ 0.0567 µM) |
| CCNC(=Nc1nc(C)ncc1CSc1nnc(-c2ccc(N)cc2Cl)o1)NCC [Compound A-64] | 0.370 | 0.015 (≈ 0.0336 µM) | 0.013 (≈ 0.0291 µM) | 0.034 (≈ 0.0761 µM) | 0.03 (≈ 0.0671 µM) | 0.086 (≈ 0.192 µM) |
| CCNC(=Nc1ncncc1CSc1nnc(-c2ccc(F)cc2N)o1)NCC [Compound A-65] | <0.000508 | 0.0014 (≈ 0.00336 µM) | 0.0014 (≈ 0.00336 µM) | 0.0028 (≈ 0.00672 µM) | 0.0021 (≈ 0.00504 µM) | 0.09 (≈ 0.216 µM) |
| CCNC(=Nc1ncncc1CSc1nnc(-c2ccc(NC)cc2)o1)NCC [Compound A-66] | – | 0.067 (≈ 0.162 µM) | 0.05 (≈ 0.121 µM) | 0.036 (≈ 0.0873 µM) | 0.17 (≈ 0.412 µM) | 1.8 (≈ 4.36 µM) |
| CCNC(=Nc1ncncc1CSc1nnc(-c2ccc(N(C)C)cc2)o1)NCC [Compound A-67] | – | 0.083 (≈ 0.195 µM) | 0.053 (≈ 0.124 µM) | 0.083 (≈ 0.195 µM) | 0.34 (≈ 0.797 µM) | 6.1 (≈ 14.3 µM) |
